From US11660311B2, “Cyclic dinucleotides as anticancer agents” (priority 2017, dated 2023)
Where two headings read alike, the source gives them in different places.

Columns and labels:
[1] = system: IRF pathway in THP1-Dual STING reporter cells; assay: STING THP1 Reporter Assay, IRF pathway (secreted Lucia luciferase); assay type: cell-based, human; conditions: 100% = 100 μM cGAMP
From the text: (§1) THP1-Dual™ cells were derived from the human THP-1 monocyte cell line by stable integration of two inducible reporter constructs. To this end, THP1-Dual™ cells allow the simultaneous study of the NF-κB pathway, by monitoring the activity of SEAP, and the IRF pathway by assessing the activity of a secreted luciferase (Lucia). Both reporter proteins are readily measurable in the cell culture supernatant when using QUANTI-Blue™, a SEAP detection reagent, and QUANTI-Luc™, a luciferase detection reagent.
(§2) THP1-Dual™ cells induce the activation of NF-κB in response to STING agonists. They also trigger the IRF pathway upon stimulation with STING agonists, such as cGAMP. Here, the THP-1-Dual cells were used to assess STING binders for function on the cellular level.
(§3) Serial dilutions of compounds in DMSO were added to low volume 384 well plates at 100 nl/well using an ECHO acoustic dispenser (Labcyte, model 550) to achieve final starting concentration of 100 μM in cell suspension. […] One column of the plate was reserved for treatment with cGAMP at 100 μM for 100% activation calculation and one column for no treatment (DMSO only) for baseline activation. Plates were then incubated in 37° C. incubator at 5% CO2 for 20 hours.
(§4) In the SEAP assay, 5 μl of 2× QuantiBlue (Invivogen, cat #Rep-qb2) is added to 384 well black plates seeded with THP1 cells and incubated at 37° C. for 2 hours. Plates were read on the Envision (Perkin Elmer) at 620 nm wavelength (OD620). In the luciferase assay, 5 μl of Quantiluc (Invivogen, Rep-qlc2) is added to white 384 well plates seeded with THP1 cells and read at 5 minutes on the Envision (Perkin Elmer) using a luminescence protocol (RLU). For both cell lines, 100% activation was determined by value (RLU) of THP-1 Dual STING cells stimulated with 100 μM cGAMP (Invivogen, cat #TLRL-NACGA23-5).

[2] = system: NF-κB pathway in THP1-Dual STING reporter cells; assay: STING THP1 Reporter Assay, NF-κB pathway (SEAP); assay type: cell-based, human; conditions: 100% = 100 μM cGAMP
From the text: as §1, §2, §3, §4

[3] = biological target: T1, STING WT: His-TVMV-S-hSTING(155-341)-H232R (Homo sapiens, UniProt Q86WV6, H232R); assay: STING HTRF Binding Assay, STING WT; conditions: 20 nM His-tagged STING cytoplasmic domain, 200 nM fluorescein-labeled cGAMP analog probe, one hour; read-out: HTRF Binding Assays IC50 (μM) STING WT
T1 construct: STING WT: His-TVMV-S-hSTING(155-341)-H232R
Method: (§5) A time resolved FRET-based competition binding assay was used to assess test article binding to STING WT and STING AQ. His-tagged STING cytoplasmic domain (WT or AQ) at a concentration of 20 nM was incubated with 2.5 nM Tb-labeled anti-His antibody, test compound, and fluorescein-labeled cGAMP analog probe (BioLog cat. no. C195) at a concentration of 200 nM (STING WT) or 40 nM (STING AQ) in PBS containing 0.005% Tween-20 and 0.1% BSA for one hour. Fluorescence at 495 nm and 520 nm was measured using an EnVision microplate reader to quantify FRET between Tb-labeled anti-His antibody and fluorescein-labeled probe. Background was defined as the signal obtained in the absence of STING protein, and background subtracted FRET ratios were normalized to the maximum signal obtained in the absence of test compound. These values were converted to a percent inhibition. Percent inhibition was determined for test compounds at 11 concentrations. The IC50, defined as the concentration of competing test compound needed to reduce specific binding of the probe by 50%, was calculated using the 4 parameter logistic equation to fit the data

[4] = biological target: T2, STING AQ: His-TVMV-S-hSTING(155-341)-G230A-R293Q (Homo sapiens, UniProt Q86WV6, G230A/H232R/R293Q); assay: STING HTRF Binding Assay, STING AQ; conditions: 20 nM His-tagged STING cytoplasmic domain, 40 nM fluorescein-labeled cGAMP analog probe, one hour; read-out: HTRF Binding Assays IC50 (μM) STING AQ
T2 construct: STING AQ: His-TVMV-S-hSTING(155-341)-G230A-R293Q
Method: as §5

[5] = Homo sapiens, THP1-Dual, 20 h, read-out: THP1 Reporter Assays EC50 (μM) IRF3, THP1-Dual cells, 10% human plasma, 20 hours, luciferase
[6] = Homo sapiens, THP1-Dual, 20 h, read-out: THP1 Reporter Assays EC50 (μM) NFkB, THP1-Dual cells, 10% human plasma, 20 hours, SEAP
[7] = THP1-Dual cells, 10% human plasma, 20 hours, luciferase, read-out: THP1 Reporter Assays EC50 (μM) IRF3
[8] = THP1-Dual cells, 10% human plasma, 20 hours, SEAP, read-out: THP1 Reporter Assays EC50 (μM) NFkB
[9] = Homo sapiens, THP1-Dual, 20 h, THP1-Dual cells, 10% human plasma, 20 hours, luciferase, read-out: THP1 Reporter Assays EC50 (μM) IRF3
[10] = Homo sapiens, THP1-Dual, 20 h, THP1-Dual cells, 10% human plasma, 20 hours, SEAP, read-out: THP1 Reporter Assays EC50 (μM) NFkB
[11] = read-out: THP1 Reporter Assays EC50 (μM) IRF3, THP1-Dual cells, 10% human plasma, 20 hours, luciferase
[12] = read-out: THP1 Reporter Assays EC50 (μM) NFkB, THP1-Dual cells, 10% human plasma, 20 hours, SEAP

T2 sequence (Q86WV6 with tags, fused parts or gaps G230A/H232R/R293Q): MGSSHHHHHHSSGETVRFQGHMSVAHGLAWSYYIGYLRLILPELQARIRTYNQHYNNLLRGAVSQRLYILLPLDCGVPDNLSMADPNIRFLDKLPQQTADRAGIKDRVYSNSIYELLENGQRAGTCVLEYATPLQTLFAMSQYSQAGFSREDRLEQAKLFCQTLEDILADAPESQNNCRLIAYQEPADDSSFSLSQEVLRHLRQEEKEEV
T1 sequence (Q86WV6 with tags, fused parts or gaps H232R): as the sequence (Q86WV6 with tags, fused parts or gaps G230A/H232R/R293Q) above, with A99G, Q162R counted along it

Compound	EC50 [1, 5]	EC50 [2, 6]	IC50 [3]	IC50 [4]	EC50 [1, 7]	EC50 [2, 8]	EC50 [1, 9]	EC50 [2, 10]	EC50 [1, 11]	EC50 [2, 12]
Nc1ncnc2c1ncn2[C@@H]1O[C@@H]2COP(=O)(S)O[C@H]3[C@@H](O)[C@H](n4cnc5c(=O)[nH]c6nccn6c54)O[C@@H]3COP(=O)(S)O[C@H]2[C@H]1F (mixture of isomers) [Example 5, (1S,6R,8R,9R,10R,15R,17R,18R)-8-(6-amino-9H-purin-9-yl)-9-fluoro-18-hydroxy-17-{4-oxo-1H,4H,5H-imidazo[2,1-b]purin-1-yl}-3,12-disulfanyl-2,4,7,11,13,16-hexaoxa-3λ^5,12λ^5-diphosphatricyclo[13.3.0.0^6,10]octadecane-3,12-dione]	0.49 µM	1.35 µM	0.004 µM	0.001 µM	–	–	–	–	–	–
Nc1ncnc2c1ncn2[C@@H]1O[C@@H]2COP(=O)(S)O[C@H]3[C@@H](O)[C@H](n4cnc5c(=O)n6ccnc6[nH]c54)O[C@@H]3COP(=O)(S)O[C@H]2[C@H]1F (single isomer, unassigned) [Example 1-1]	–	–	0.02 µM	0.01 µM	0.38 µM	0.94 µM	–	–	–	–
Nc1ncnc2c1ncn2[C@@H]1O[C@@H]2COP(=O)(S)O[C@H]3[C@@H](O)[C@H](n4cnc5c(=O)n6ccnc6[nH]c54)O[C@@H]3COP(=O)(S)O[C@H]2[C@H]1F (single isomer, unassigned) [Example 1-2]	–	–	0.07 µM	0.01 µM	2.69 µM	5.35 µM	–	–	–	–
NC(=O)c1cccc2c1nnn2[C@@H]1O[C@@H]2COP(=O)(S)O[C@H]3[C@@H](F)[C@H](n4cnc5c(N)ncnc54)O[C@@H]3COP(=O)(S)O[C@H]2[C@H]1F (single isomer, unassigned) [Example 4-1]	–	–	> 100 µM	17.8 µM	> 100 µM	> 100 µM	–	–	–	–
NC(=O)c1cccc2c1nnn2[C@@H]1O[C@@H]2COP(=O)(S)O[C@H]3[C@@H](F)[C@H](n4cnc5c(N)ncnc54)O[C@@H]3COP(=O)(S)O[C@H]2[C@H]1F (single isomer, unassigned) [Example 4-2]	–	–	8.1 µM	0.24 µM	–	–	> 100 µM	> 100 µM	–	–
NC(=O)c1cccc2c1nnn2[C@@H]1O[C@@H]2COP(=O)(S)O[C@H]3[C@@H](F)[C@H](n4cnc5c(N)ncnc54)O[C@@H]3COP(=O)(S)O[C@H]2[C@H]1F (single isomer, unassigned) [Example 4-3]	–	–	12 µM	0.39 µM	> 100 µM	> 100 µM	–	–	–	–
NC(=O)c1cccc2c1nnn2[C@@H]1O[C@@H]2COP(=O)(S)O[C@H]3[C@@H](F)[C@H](n4cnc5c(N)ncnc54)O[C@@H]3COP(=O)(S)O[C@H]2[C@H]1F (single isomer, unassigned) [Example 4-4]	–	–	0.78 µM	0.02 µM	81.1 µM	92.4 µM	–	–	–	–
NC(=O)c1cc([C@@H]2O[C@@H]3COP(=O)(S)O[C@H]4[C@@H](F)[C@H](n5cnc6c(N)ncnc65)O[C@@H]4COP(=O)(S)O[C@H]3[C@H]2O)[nH]n1 (single isomer, unassigned) [Example 6-1]	–	–	5.58 µM	1.32 µM	–	–	> 100 µM	> 100 µM	–	–
NC(=O)c1cc([C@@H]2O[C@@H]3COP(=O)(S)O[C@H]4[C@@H](F)[C@H](n5cnc6c(N)ncnc65)O[C@@H]4COP(=O)(S)O[C@H]3[C@H]2O)[nH]n1 (single isomer, unassigned) [Example 6-2]	–	–	88.6 µM	5.75 µM	> 100 µM	> 100 µM	–	–	–	–
NC(=O)c1cc([C@@H]2O[C@@H]3COP(=O)(S)O[C@H]4[C@@H](F)[C@H](n5cnc6c(N)ncnc65)O[C@@H]4COP(=O)(S)O[C@H]3[C@H]2O)[nH]n1 (single isomer, unassigned) [Example 6-3]	–	–	> 100 µM	16.2 µM	> 100 µM	> 100 µM	–	–	–	–
NC(=O)c1cc([C@@H]2O[C@@H]3COP(=O)(S)O[C@H]4[C@@H](F)[C@H](n5cnc6c(N)ncnc65)O[C@@H]4COP(=O)(S)O[C@H]3[C@H]2O)[nH]n1 (single isomer, unassigned) [Example 6-4]	–	–	3.03 µM	0.19 µM	> 100 µM	> 100 µM	–	–	–	–
NC(=O)c1cccc2c1nnn2[C@@H]1O[C@@H]2COP(=O)(O)O[C@H]3[C@@H](F)[C@H](n4cnc5c(N)ncnc54)O[C@@H]3COP(=O)(S)O[C@H]2[C@H]1F (single isomer, unassigned) [Example 8-1]	–	–	64.6 µM	1.75 µM	–	–	> 100 µM	> 100 µM	–	–
NC(=O)c1cccc2c1nnn2[C@@H]1O[C@@H]2COP(=O)(O)O[C@H]3[C@@H](F)[C@H](n4cnc5c(N)ncnc54)O[C@@H]3COP(=O)(S)O[C@H]2[C@H]1F (single isomer, unassigned) [Example 8-2]	–	–	2.23 µM	0.07 µM	> 100 µM	> 100 µM	–	–	–	–
Nc1ncnc2c1ncn2[C@@H]1O[C@@H]2COP(=O)(S)O[C@H]3[C@@H](O)[C@H](n4cnc5c4ncn4ncnc54)O[C@@H]3COP(=O)(O)O[C@H]2[C@H]1F (single isomer, unassigned) [Example 10-1]	–	–	2.5 µM	0.04 µM	–	–	–	–	> 100 µM	> 100 µM
Nc1ncnc2c1ncn2[C@@H]1O[C@@H]2COP(=O)(S)O[C@H]3[C@@H](O)[C@H](n4cnc5c4ncn4ncnc54)O[C@@H]3COP(=O)(O)O[C@H]2[C@H]1F (single isomer, unassigned) [Example 10-2]	–	–	0.05 µM	–	–	–	–	–	3.69 µM	8.99 µM
Nc1ncnc2c1ncn2[C@@H]1O[C@@H]2COP(O)(=S)O[C@H]3[C@@H](F)[C@H](n4cnc5c4ncn4ncnc54)O[C@@H]3COP(O)(=S)O[C@H]2[C@H]1F (single isomer, unassigned) [Example 12-1]	8.2 µM	–	0.56 µM	0.04 µM	–	–	–	65.9 µM	–	–
Nc1ncnc2c1ncn2[C@@H]1O[C@@H]2COP(=O)(O)O[C@H]3[C@@H](O)[C@H](n4cnc5c4ncn4ncnc54)O[C@@H]3COP(=O)(O)O[C@H]2[C@H]1F [Example 11, (1S,6R,8R,9R,10R,15R,17R,18R)-8-(6-amino-9H-purin-9-yl)-9-fluoro-3,12,18-trihydroxy-17-{3H-[1,2,4]triazolo[3,2-f]purin-3-yl}-2,4,7,11,13,16-hexaoxa-3λ^5,12λ^5-diphosphatricyclo[13.3.0.0^6,10]octadecane-3,12-dione]	8.35 µM	16 µM	0.23 µM	–	–	–	–	–	–	–
